Experimental data reported in patent publication US9795646B2, “Boswellia oil, its fractions and compositions for enhancing brain function” (LAILA NUTRACEUTICALS, priority 2010, dated 2017).

Legend:
Assay type in all cases: cell-based
[1] = target: T1, acetylcholine esterase (AChE) (Rattus norvegicus, UniProt P37136); experiment: Acetylcholine esterase inhibitory activity in β-amyloid peptide induced PC 12 cells; settings: Beta Amyloid induced PC12 cells, Table 8
T1 construct: The cell extracts were used as samples for measuring the acetylcholine esterase (AChE) activity; endogenous in cells; host or cells: rat pheochromocytoma PC 12 cells, induced with β-amyloid peptide
T1 sequence (P37136 32-614): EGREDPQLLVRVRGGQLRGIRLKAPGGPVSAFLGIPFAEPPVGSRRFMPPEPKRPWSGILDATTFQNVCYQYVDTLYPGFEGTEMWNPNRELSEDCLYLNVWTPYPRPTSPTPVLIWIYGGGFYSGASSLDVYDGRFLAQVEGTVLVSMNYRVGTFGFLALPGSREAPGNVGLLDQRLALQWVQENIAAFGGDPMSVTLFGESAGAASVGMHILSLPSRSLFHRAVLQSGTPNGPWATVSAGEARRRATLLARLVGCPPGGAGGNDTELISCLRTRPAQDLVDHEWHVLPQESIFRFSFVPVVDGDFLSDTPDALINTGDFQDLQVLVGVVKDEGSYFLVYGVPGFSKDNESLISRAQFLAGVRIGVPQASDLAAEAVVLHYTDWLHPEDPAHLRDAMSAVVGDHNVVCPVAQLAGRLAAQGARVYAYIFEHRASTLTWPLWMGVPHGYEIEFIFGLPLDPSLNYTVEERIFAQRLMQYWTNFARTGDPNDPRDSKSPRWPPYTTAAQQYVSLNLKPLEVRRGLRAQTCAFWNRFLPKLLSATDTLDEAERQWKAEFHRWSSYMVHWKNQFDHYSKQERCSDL
Method: As a part of developing new agents for improving brain/mental function and alleviating disease conditions related to cognition and memory deficits, a large number of plant extracts have been screened for their inhibitory property on Acetylcholinesterase enzyme activity. The assay was performed in vitro by the method of Ellman et al., with minor modifications, using acetylthiocholine iodide as a substrate (Lee J. H., et. al. Arch Pharm Res 2004, 27(1): 53-56). […] Its acetylcholinesterase inhibitory activity was also evaluated by a cell based in vitro assay in Rat pheochromocytoma PC 12 cells. […] Rat pheochromocytoma PC 12 cells were equally distributed with phenol red free Dulbecco's modified Eagle's red medium (DMEM) (Sigma Life Science, USA) containing 10% fetal bovine serum (FBS) in 24-well plate. […] Thereafter, cells were induced with 1 μg/mL of β-amyloid peptide (Calbiochem, USA) for 24 h at 37° C. After 24 h, cells were collected and washed twice with 1×PBS by centrifugation at 1200 rpm for 5 min at 4° C. The cell extracts were prepared in solubilization buffer and the cell lysates were analyzed for acetylcholine esterase (AChE) activity.
The inhibitory property on the enzyme activity was assessed in β-amyloid peptide induced-rat pheochromocytoma PC 12 cells. Rat pheochromocytoma PC 12 cells were equally distributed with phenol red free Dulbecco's modified Eagle's red medium (DMEM) (Sigma Life Science, USA) containing 10% fetal bovine serum (FBS) in 24-well plate. […] Thereafter, cells were induced with 1 μg/mL of β-amyloid peptide (Calbiochem, USA) for 24 h at 37° C. After 24 h, cells were collected and washed twice with 1×PBS by centrifugation at 1200 rpm for 5 min at 4° C. Cell extracts were prepared in solubilization buffer (10 mM Tris, pH 7.2; 100 mM NaCl, 50 mM MgCl2, 1% Triton X-100). The cell extracts were used as samples for measuring the acetylcholine esterase (AChE) activity.
Cell extract samples (100 μl) were dispensed into each well of 96-well microtitre plate. Fifty micro liters of DTNB (Dithiobisnitro benzoate) solution was added to each well and incubated for 5 min at room temperature. After incubation, 50 μl of acetyl choline iodide solution was added to each well and absorbance was read immediately at 405 nm for 12 min at 2 min intervals. A standard curve was constructed by using serial concentrations of acetyl cholinesterase (0-100 mU). Total protein present in 100 μl aliquot of cell extract was calculated by Bradford method and the enzyme activity was normalized and expressed as unit activity per milligram of protein.

[2] = test system: RAW 264.7 mouse macrophages; experiment: Assay for measuring reactive oxygen species (ROS), DCFH-DA, H2O2; settings: H2O2 treated RAW 264.7 cells
Method: Formation of ROS was measured using of the fluorescent probe DCFH-DA. The method is based on the incubation of the RAW 264.7 mouse macrophages with DCFH-DA, which diffuses passively through the cellular membrane. Intracellular esterase activity results in the formation of DCFH, which emits fluorescence when oxidized to 20, 70-dichlorofluorescein (DCF). Briefly, the cells (final concentration 2×10^6/ml suspension) were incubated with DCFH-DA ([…]) in HEPES-buffered (20 mM) HBSS (CaCl2 1.26 mM, KCL 5.37 mM, KH2PO4 0.44 mM; MgCl2
0.49 mM, MgSO4 0.41 mM, NaCl 140 mM, NaHCO3 4.17 mM, Na2HPO4 0.34 mM) with glucose (5 mM) at 37° C. for 15 min. Following centrifugation, the extracellular buffer with DCFH-DA was exchanged with fresh buffer and the suspension was mixed gently. […] Fluorescence was recorded using excitation wavelength 485 nm, emission wavelength 530 nm in a Modulus luminescence spectrometer (Turner Biosystems, USA) for 120 min. Results are calculated as area under the curve (AUC) and the percentage of inhibition of intracellular ROS generation was calculated from the cultures treated with H2O2.

[3] = test system: IMR32 human neuroblastoma cells; experiment: MTT cell proliferation assay, protection from oxidative stress induced cytotoxic damage; settings: vehicle control 100.00, H2O2 alone 78.71
Method: Briefly, IMR32 human neuroblastoma cells were cultivated in Dulbecco's modified Eagle's red medium (DMEM) (Sigma Life Science, USA) containing 10% fetal bovine serum (FBS). Equal number of IMR32 cells was seeded in to each well of 96 well microplate and incubated at 37° C. with 5% CO2. […] Control wells were supplemented with 0.05% DMSO. After 72 h of treatment, equal volume of MTT reagent (R&D Systems, USA) was added to each well and incubated for 4 h. Thereafter, 50 μl of solublization buffer (R&D Systems, USA) was added to each well to solubilize the colored formazan crystals produced by the reduction of MTT. After 24 h, the optical density was measured at 550 nm using microplate reader (Bio-Rad, USA). In each assay, the vehicle control and the treatments were done in quadruplicates. The average OD obtained in the vehicle control wells is considered as the cell proliferation index of 100.

Question: Which results are given for `COc1c(O)cc2oc3cc(O)c(CC=C(C)C)c(O)c3c(=O)c2c1CC=C(C)C` [α-mangostin]?
Answer: % inhibition in Acetylcholinesterase (AChE) activity ([1]; 100 ng/ml): 26.83%; % inhibition in Acetylcholinesterase (AChE) activity ([1]; 250 ng/ml): 29.48%; Inhibition of Reactive Oxygen Species (ROS) generation (IC50) [2]: 49.817 µg/mL; Cell proliferation Index ([3]; 10 ng/ml with 250 uM H2O2, 72 h): 80.32; Cell proliferation Index ([3]; 25 ng/ml with 250 uM H2O2, 72 h): 86.78; Cell proliferation Index ([3]; 50 ng/ml with 250 uM H2O2, 72 h): 87.21; Cell proliferation Index ([3]; 100 ng/ml with 250 uM H2O2, 72 h): 91.78
